This note sets out measurements from PubChem BioAssay (NCI).

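Values below derive from 48-hour exposures of cells grown in 96-well plates, with endpoints linearly interpolated between the two concentrations bracketing the appropriate inhibition level. The concentration for 50% growth inhibition is given as GI50. Definition used: TGI = concentration required for complete inhibition of growth.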

Some test systems named below: BT-549 breast; HCC-2998 colon; HOP-92 NSCLC; K-562 leukemia; M14 melanoma; NCI-H226 lung; NCI-H23 lung; NCI-H522 lung; NCI/ADR-RES ovarian; PC-3 prostate; SNB-75 CNS; UACC-257 melanoma.
What all share (test): NCI tumour cell line growth inhibition, 48 h

In the case of `Cc1ccc2c(n1)C(=O)C=CC2=O`, the TGI turned out to be 31.5 µM with BT-549 breast; 33.5 µM with HCC-2998 colon; 13.7 µM with HOP-92 NSCLC; 18 µM with K-562 leukemia; 32.3 µM in the assay with M14 melanoma; 42.8 µM in the assay on NCI-H226 lung. In addition, the TGI was 30.6 µM with NCI-H23 lung; 3.51 µM with NCI-H522 lung; 48.6 µM in the assay on NCI/ADR-RES ovarian; 31.9 µM in the assay with PC-3 prostate; 38.2 µM in the assay on SNB-75 CNS; 14.6 µM with UACC-257 melanoma.

For the molecule `O=C(Nc1cc2c(=O)oc3ccccc3c2oc1=O)c1cccnc1`, the TGI with BT-549 breast, in the assay with HCC-2998 colon, in the assay with HOP-92 NSCLC, in the assay on K-562 leukemia, in the assay with M14 melanoma and with NCI-H226 lung was above 100 µM in each case. In addition, the TGI in the assay with NCI-H23 lung, in the assay with NCI-H522 lung, in the assay with NCI/ADR-RES ovarian, in the assay on PC-3 prostate, in the assay with SNB-75 CNS and with UACC-257 melanoma was above 100 µM in each case.

In the case of `COc1cc(C2SC(N)=Nc3c2c(C)nn3C(=O)c2ccccc2O)ccc1O` (centres undefined), the TGI was above 10 µM in the assay with BT-549 breast; above 10 µM in the assay on HCC-2998 colon; above 10 µM with HOP-92 NSCLC; above 3.75 µM in the assay with K-562 leukemia; above 10 µM in the assay with M14 melanoma; above 6.18 µM in the assay with NCI-H226 lung. Moreover, the TGI in the assay on NCI-H23 lung, in the assay on NCI-H522 lung, with NCI/ADR-RES ovarian, in the assay on PC-3 prostate, in the assay with SNB-75 CNS and in the assay on UACC-257 melanoma was above 10 µM each time.

Turning to `Nc1ncc(Cl)c(NCC2(CO)CC(CCc3ccccc3)C2)n1` (centres undefined), the TGI with BT-549 breast, in the assay on HCC-2998 colon, in the assay with HOP-92 NSCLC, in the assay on K-562 leukemia, in the assay with M14 melanoma and with NCI-H226 lung was above 100 µM throughout. Besides, the TGI in the assay on NCI-H23 lung is above 100 µM; with NCI-H522 lung, above 100 µM; in the assay on NCI/ADR-RES ovarian, above 100 µM; with PC-3 prostate, above 100 µM; with SNB-75 CNS, 99.4 µM; with UACC-257 melanoma, above 100 µM.

For the molecule `Cc1cc(N=Nc2c(O)ccc3ccccc23)ccc1N=Nc1cccc([N+](C)(C)C)c1`, the TGI with BT-549 breast is 15.7 µM; in the assay on HCC-2998 colon, above 100 µM; in the assay on HOP-92 NSCLC it was above 100 µM; with K-562 leukemia, above 90.7 µM; in the assay on M14 melanoma, 59.3 µM; in the assay on NCI-H226 lung it was 30.2 µM. The TGI in the assay on NCI-H23 lung was 52 µM; with NCI-H522 lung, above 26.1 µM; with NCI/ADR-RES ovarian, above 100 µM; in the assay with PC-3 prostate, 35.1 µM; in the assay with SNB-75 CNS it was 26.3 µM; with UACC-257 melanoma, above 63.5 µM.

Consider `CCN(CC)CCNC(=O)c1ccc(I)cc1`, for which the TGI in the assay with BT-549 breast, in the assay on HCC-2998 colon, in the assay with HOP-92 NSCLC, with K-562 leukemia, with M14 melanoma and with NCI-H226 lung was above 100 µM in each case. In addition, the TGI in the assay with NCI-H23 lung, with NCI-H522 lung, with NCI/ADR-RES ovarian, in the assay with PC-3 prostate, with SNB-75 CNS and in the assay with UACC-257 melanoma was above 100 µM each time.

For `Cc1nc2c(nc1C)-c1c(c3c(n1C)C(=O)CCC3)C(=O)C2=O`, the TGI is 0.289 µM in the assay on BT-549 breast; 4.06 µM in the assay with HCC-2998 colon; 2.94 µM in the assay with HOP-92 NSCLC; above 100 µM in the assay with K-562 leukemia; 1.29 µM with M14 melanoma; 2.77 µM in the assay with NCI-H226 lung. Moreover, the TGI amounted to 2.85 µM in the assay with NCI-H23 lung; 1.6 µM in the assay on NCI-H522 lung; 2.05 µM with NCI/ADR-RES ovarian; 3.14 µM in the assay with PC-3 prostate; 2.14 µM with SNB-75 CNS; 2.76 µM with UACC-257 melanoma.

With `O=C(NNC(c1ccccc1)C(F)(F)F)c1ccncc1` (centres undefined), the TGI with BT-549 breast, in the assay on HCC-2998 colon, in the assay with HOP-92 NSCLC, in the assay on K-562 leukemia, with M14 melanoma and in the assay with NCI-H226 lung was above 100 µM each time. The TGI in the assay on NCI-H23 lung, in the assay with NCI-H522 lung, in the assay with NCI/ADR-RES ovarian, in the assay with PC-3 prostate, with SNB-75 CNS and with UACC-257 melanoma was above 100 µM in each case.

For `O=C(Nc1c(C(F)(F)F)cc(-c2ccccc2)[nH]c1=O)N1CCOCC1`, the TGI in the assay on BT-549 breast, with HCC-2998 colon, with HOP-92 NSCLC, in the assay on K-562 leukemia, in the assay with M14 melanoma and in the assay with NCI-H226 lung was above 100 µM in each case. Besides, the TGI with NCI-H23 lung, in the assay on NCI-H522 lung, with NCI/ADR-RES ovarian, with PC-3 prostate, with SNB-75 CNS and in the assay on UACC-257 melanoma was above 100 µM each time.

With `CCOC(=O)C(C(=O)c1ccccc1C(=O)OC)=P(c1ccccc1)(c1ccccc1)c1ccccc1`, the TGI in the assay on BT-549 breast, in the assay on HCC-2998 colon, in the assay on HOP-92 NSCLC, in the assay on K-562 leukemia, in the assay with M14 melanoma and in the assay with NCI-H226 lung was above 10 µM each time. Further, the TGI with NCI-H23 lung, with NCI-H522 lung, in the assay with NCI/ADR-RES ovarian, in the assay on PC-3 prostate, in the assay on SNB-75 CNS and with UACC-257 melanoma was above 10 µM throughout.

Take `C=C(C)C1CC/C(C)=C/CC[C@]2(C)O[C@H]2CC/C(COC(C)=O)=C\[C@@H]1O` (some centres undefined): the TGI with BT-549 breast, in the assay with HCC-2998 colon, with HOP-92 NSCLC, with K-562 leukemia, with M14 melanoma and in the assay on NCI-H226 lung was above 50 µM in each case. The TGI was above 50 µM with NCI-H23 lung; above 50 µM with NCI-H522 lung; above 50 µM in the assay with NCI/ADR-RES ovarian; above 50 µM with PC-3 prostate; 15.2 µM with SNB-75 CNS; above 50 µM with UACC-257 melanoma. Further, the GI50 was 8.28 µM in the assay with M14 melanoma and 0.625 µM with SNB-75 CNS.
